{"source": "PubChem BioAssay AID1963863", "about": "(Molecular Pharmacology Branch, DTP, NCI, 2024);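 further: compound exposure lasted 7 days before the readout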;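 on viability, T/C: 100% = DMSO vehicle control viability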", "system": "931267-113-T-J1-PDC KRAS spheroid with HUVEC/MSC, viability", "test": "Anticancer human tumor 931267-113-T-J1-PDC patient-derived colon adenocarcinoma cell line growth inhibition [KRAS2]", "details": "for IC50: curve of first compound; for viability, T/C: stronger effect = lower value", "from_the_text": "Multicellular complex tumor spheroid response to RAS pathway inhibitors in combination with a targeted agents in patient-derived cell lines with oncogenic KRAS variants from multiple cancer types\nA high-throughput screen of multi-cell type tumor spheroids was designed to identify active combinations of targeted small molecules and KRAS pathway inhibitors. Complex spheroids include a stromal component modeled by human endothelial cells (HUVEC) and fibroblasts modeled by human mesenchymal stem cells (MSCs). The concentration ranges selected for each drug and investigational agent were based upon clinically achievable concentrations if the clinical Cmax of the agent was known.\nCompounds. The drugs and investigational agents: BI-3406 (NSC825286), BAY-293 (NSC824723), batoprotafib (TNO155; NSC825523), sotorasib (AMG 510; NSC818433), MRTX1257 (NSC819558), elimusertib (BAY 1895344; NSC800525), molibresib (GSK525762; NSC774829), temuterkib (LY3214996; NSC803410), venetoclax (NSC766270), alisertib (NSC759677), olaparib (NSC753686), talazoparib (NSC767125), erdafitinib (NSC781556), ipatasertib (NSC767898), cabozantinib (NSC761068), nintedanib (NSC756659), abemaciclib (NSC768073), docetaxel (NSC628503), trametinib (NSC758246), and sapanisertib (NSC764658) were obtained from the National Cancer Institute (NCI) Developmental Therapeutics Program Chemical Repository. The FDA-approved anticancer drug set is available from the Developmental Therapeutics Program. […] The stock solutions were prepared in dimethyl sulfoxide (DMSO, Sigma-Aldrich, St. Louis, MO, cat. D2650) at 800-fold the tested concentration and stored at -70 degrees C prior to their use. All drugs and investigational agents were tested over a range starting from a high concentration at or near the clinical Cmax and decreasing in half-log increments. If the clinical Cmax for an agent had not been determined, the highest concentration tested was 10 microM.\nCell Culture. All cells were maintained in an incubator at 37 degrees C and 5% CO2 with 95% humidity. The PDC lines were cultured according to standard operating procedures established by the NCI PDMR (https://pdmr.cancer.gov/sops/default.htm). Briefly, all PDCs were thawed and cultured in Matrigel-coated flasks prepared with a working solution of 1X Ham's F-12 nutrient mix, without supplementation (Invitrogen, Waltham, MA, cat. 11765054), 100 U/mL penicillin-streptomycin (Invitrogen, cat. 15140122), and 2.5% Matrigel (Corning Inc., Corning, NY, cat. 354248) for the first three passages. All PDCs were cultured in complete DMEM/F-12 media containing advanced DMEM/F-12 (Invitrogen, cat. 12634028), 4.9% defined fetal bovine serum, heat inactivated (HyClone Laboratories Inc., Logan, UT, cat. SH30070.03HI), 389 ng/mL hydrocortisone (Sigma-Aldrich, cat. H4001), 9.7 ng/mL human EGF recombinant protein (Invitrogen, cat. PHG0313), 23.4 microg/mL adenine (Sigma-Aldrich, cat. A2786), 97.3 U/mL penicillin-streptomycin (Invitrogen, cat. 15140122), 1.9 mM L-glutamine (Invitrogen, cat. 25030081), and 9.7 microM Y-27632 dihydrochloride (Tocris Bioscience, Bristol, United Kingdom, cat. 1254). The PDCs were cultured in complete DMEM/F12 media without 9.7 microM Y-27632 dihydrochloride for at least two passages prior to the screen. The established cell line HOP-62 was cultured in RPMI 1640 medium, HEPES (Invitrogen, cat. 22400105) with 10% defined fetal bovine serum (HyClone Laboratories Inc., cat. SH30070.03) and 2 mM L-glutamine (Invitrogen, cat. 25030081). The pooled donor HUVEC were cultured in endothelial cell growth medium 2 (PromoCell, Heidelberg, Germany, cat. C-22011) and the hMSC were cultured in mesenchymal stem cell growth medium 2 (PromoCell, cat. C-28009). For all experiments, HUVEC and hMSC were used at passages </=5, while the malignant cell lines were used at passages </=15. […]", "key": {"[1]": {"details": "second compound 0.1 µM, first compound 0.0316 µM"}, "[2]": {"details": "second compound 0.1 µM, first compound 0.1 µM"}, "[3]": {"details": "second compound 0.316 µM, first compound 0.0316 µM"}, "[4]": {"details": "second compound 0.316 µM, first compound 0.1 µM"}, "[5]": {"details": "second compound 1 µM, first compound 0.0316 µM"}, "[6]": {"details": "second compound 1 µM, first compound 0.1 µM"}, "[7]": {"details": "second compound 3.16 µM, first compound 0.0316 µM"}, "[8]": {"details": "second compound 3.16 µM, first compound 0.1 µM"}}}
{"smiles": "CC1OCC2(CCN(c3cnc(Sc4ccnc(N)c4Cl)c(N)n3)CC2)C1N", "note": "(stereo not given) + C=CC(=O)N1CCN(c2nc(OCC3CCCN3C)nc3c2CCN(c2cccc4cccc(C)c24)C3)CC1CC#N", "values": [{"measurement": "IC50", "setting": "second compound 0.0316 µM", "result": "> 10000", "unit": "nM"}, {"measurement": "IC50", "setting": "second compound 0.1 µM", "result": "> 10000", "unit": "nM"}, {"measurement": "IC50", "setting": "second compound 0.316 µM", "result": "> 10000", "unit": "nM"}, {"measurement": "IC50", "setting": "second compound 1 µM", "result": "> 10000", "unit": "nM"}, {"measurement": "IC50", "setting": "second compound 3.16 µM", "result": "< 31.6", "unit": "nM"}, {"measurement": "viability, T/C", "setting": "second compound 0.0316 µM, first compound 0.0316 µM", "result": 111, "unit": "%"}, {"measurement": "viability, T/C", "setting": "second compound 0.0316 µM, first compound 0.1 µM", "result": 81.9, "unit": "%"}, {"measurement": "viability, T/C", "setting": "second compound 0.0316 µM, first compound 0.316 µM", "result": 77.3, "unit": "%"}, {"measurement": "viability, T/C", "setting": "second compound 0.0316 µM, first compound 1 µM", "result": 58.2, "unit": "%"}, {"measurement": "viability, T/C", "setting": "second compound 0.0316 µM, first compound 3.16 µM", "result": 80, "unit": "%"}, {"measurement": "viability, T/C", "setting": "second compound 0.0316 µM, first compound 10 µM", "result": 83, "unit": "%"}, {"measurement": "viability, T/C", "setting": "[1]", "result": 98.3, "unit": "%"}, {"measurement": "viability, T/C", "setting": "[2]", "result": 75.6, "unit": "%"}, {"measurement": "viability, T/C", "setting": "second compound 0.1 µM, first compound 0.316 µM", "result": 79.1, "unit": "%"}, {"measurement": "viability, T/C", "setting": "second compound 0.1 µM, first compound 1 µM", "result": 75.2, "unit": "%"}, {"measurement": "viability, T/C", "setting": "second compound 0.1 µM, first compound 3.16 µM", "result": 71.1, "unit": "%"}, {"measurement": "viability, T/C", "setting": "second compound 0.1 µM, first compound 10 µM", "result": 99.3, "unit": "%"}, {"measurement": "viability, T/C", "setting": "[3]", "result": 93, "unit": "%"}, {"measurement": "viability, T/C", "setting": "[4]", "result": 87.8, "unit": "%"}, {"measurement": "viability, T/C", "setting": "second compound 0.316 µM, first compound 0.316 µM", "result": 69.1, "unit": "%"}, {"measurement": "viability, T/C", "setting": "second compound 0.316 µM, first compound 1 µM", "result": 70.2, "unit": "%"}, {"measurement": "viability, T/C", "setting": "second compound 0.316 µM, first compound 3.16 µM", "result": 75.6, "unit": "%"}, {"measurement": "viability, T/C", "setting": "second compound 0.316 µM, first compound 10 µM", "result": 69.6, "unit": "%"}, {"measurement": "viability, T/C", "setting": "[5]", "result": 78, "unit": "%"}, {"measurement": "viability, T/C", "setting": "[6]", "result": 65.9, "unit": "%"}, {"measurement": "viability, T/C", "setting": "second compound 1 µM, first compound 0.316 µM", "result": 55.2, "unit": "%"}, {"measurement": "viability, T/C", "setting": "second compound 1 µM, first compound 1 µM", "result": 68.7, "unit": "%"}, {"measurement": "viability, T/C", "setting": "second compound 1 µM, first compound 3.16 µM", "result": 68.8, "unit": "%"}, {"measurement": "viability, T/C", "setting": "second compound 1 µM, first compound 10 µM", "result": 61.2, "unit": "%"}, {"measurement": "viability, T/C", "setting": "[7]", "result": 0.31, "unit": "%"}, {"measurement": "viability, T/C", "setting": "[8]", "result": 0.29, "unit": "%"}, {"measurement": "viability, T/C", "setting": "second compound 3.16 µM, first compound 0.316 µM", "result": 0.36, "unit": "%"}, {"measurement": "viability, T/C", "setting": "second compound 3.16 µM, first compound 1 µM", "result": 0.26, "unit": "%"}, {"measurement": "viability, T/C", "setting": "second compound 3.16 µM, first compound 3.16 µM", "result": 0.28, "unit": "%"}, {"measurement": "viability, T/C", "setting": "second compound 3.16 µM, first compound 10 µM", "result": 0.26, "unit": "%"}]}
{"smiles": "CC(C)n1nc(-c2ccc3oc(N)nc3c2)c2c(N)ncnc21", "note": "+ COc1cc2nc(C)nc(NC(C)c3cc(N)cc(C(F)(F)F)c3)c2cc1OC1CCOC1", "values": [{"measurement": "IC50", "setting": "second compound 0.1 µM", "result": 9.26, "unit": "nM"}, {"measurement": "IC50", "setting": "second compound 0.316 µM", "result": 7.45, "unit": "nM"}, {"measurement": "IC50", "setting": "second compound 1 µM", "result": 9.33, "unit": "nM"}, {"measurement": "IC50", "setting": "second compound 3.16 µM", "result": 6.56, "unit": "nM"}, {"measurement": "IC50", "setting": "second compound 10 µM", "result": "< 0.316", "unit": "nM"}, {"measurement": "viability, T/C", "setting": "second compound 0.1 µM, first compound 0.000316 µM", "result": 109, "unit": "%"}, {"measurement": "viability, T/C", "setting": "second compound 0.1 µM, first compound 0.001 µM", "result": 92.5, "unit": "%"}, {"measurement": "viability, T/C", "setting": "second compound 0.1 µM, first compound 0.00316 µM", "result": 69, "unit": "%"}, {"measurement": "viability, T/C", "setting": "second compound 0.1 µM, first compound 0.01 µM", "result": 50.5, "unit": "%"}, {"measurement": "viability, T/C", "setting": "[1]", "result": 31.1, "unit": "%"}, {"measurement": "viability, T/C", "setting": "[2]", "result": 24.9, "unit": "%"}, {"measurement": "viability, T/C", "setting": "second compound 0.316 µM, first compound 0.000316 µM", "result": 108, "unit": "%"}, {"measurement": "viability, T/C", "setting": "second compound 0.316 µM, first compound 0.001 µM", "result": 91.7, "unit": "%"}, {"measurement": "viability, T/C", "setting": "second compound 0.316 µM, first compound 0.00316 µM", "result": 77.3, "unit": "%"}, {"measurement": "viability, T/C", "setting": "second compound 0.316 µM, first compound 0.01 µM", "result": 39.1, "unit": "%"}, {"measurement": "viability, T/C", "setting": "[3]", "result": 28.1, "unit": "%"}, {"measurement": "viability, T/C", "setting": "[4]", "result": 24.2, "unit": "%"}, {"measurement": "viability, T/C", "setting": "second compound 1 µM, first compound 0.000316 µM", "result": 84.5, "unit": "%"}, {"measurement": "viability, T/C", "setting": "second compound 1 µM, first compound 0.001 µM", "result": 101, "unit": "%"}, {"measurement": "viability, T/C", "setting": "second compound 1 µM, first compound 0.00316 µM", "result": 65.9, "unit": "%"}, {"measurement": "viability, T/C", "setting": "second compound 1 µM, first compound 0.01 µM", "result": 51.7, "unit": "%"}, {"measurement": "viability, T/C", "setting": "[5]", "result": 30.9, "unit": "%"}, {"measurement": "viability, T/C", "setting": "[6]", "result": 23.9, "unit": "%"}, {"measurement": "viability, T/C", "setting": "second compound 3.16 µM, first compound 0.000316 µM", "result": 79, "unit": "%"}, {"measurement": "viability, T/C", "setting": "second compound 3.16 µM, first compound 0.001 µM", "result": 75.8, "unit": "%"}, {"measurement": "viability, T/C", "setting": "second compound 3.16 µM, first compound 0.00316 µM", "result": 63.7, "unit": "%"}, {"measurement": "viability, T/C", "setting": "second compound 3.16 µM, first compound 0.01 µM", "result": 41.9, "unit": "%"}, {"measurement": "viability, T/C", "setting": "[7]", "result": 28.6, "unit": "%"}, {"measurement": "viability, T/C", "setting": "[8]", "result": 23.6, "unit": "%"}, {"measurement": "viability, T/C", "setting": "second compound 10 µM, first compound 0.000316 µM", "result": 1.37, "unit": "%"}, {"measurement": "viability, T/C", "setting": "second compound 10 µM, first compound 0.001 µM", "result": 1.1, "unit": "%"}, {"measurement": "viability, T/C", "setting": "second compound 10 µM, first compound 0.00316 µM", "result": 6.43, "unit": "%"}, {"measurement": "viability, T/C", "setting": "second compound 10 µM, first compound 0.01 µM", "result": 3.9, "unit": "%"}, {"measurement": "viability, T/C", "setting": "second compound 10 µM, first compound 0.0316 µM", "result": 2.74, "unit": "%"}, {"measurement": "viability, T/C", "setting": "second compound 10 µM, first compound 0.1 µM", "result": 1.79, "unit": "%"}]}
